Assay results taken from patent US6737383B1, “Herbicidal oxadiazolidines” (priority 1999, dated 2004).

Columns and labels:
blackgrass = experiment: Test B pre/postemergence blackgrass; assay type: in vivo, Alopecurus myosuroides; conditions: for Plant response rating, Blackgrass: scale of 0 to 10 where 0 is no effect and 10 is complete control
Summary of the method: (§1)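 Herbicidal effect was estimated by eye on a ten-point control scale after plants spent twelve to sixteen days in a greenhouse following soil or foliar treatment. Foliar sprays targeted plants at one to four leaves; all doses were formulated in a non-phytotoxic solvent with surfactant.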

velvetleaf = experiment: Test B pre/postemergence velvetleaf; assay type: in vivo, Abutilon theophrasti; conditions: for Velvetleaf plant response rating: Rate 125 g/ha, scale 0 to 10, 0 is no effect, 10 is complete control; for Plant response rating, Velvetleaf: scale of 0 to 10 where 0 is no effect and 10 is complete control
Summary of the method: as §1

crabgrass = experiment: Test B pre/postemergence crabgrass; assay type: in vivo, Digitaria sanguinalis; conditions: for Plant response rating, Crabgrass: scale of 0 to 10 where 0 is no effect and 10 is complete control
Summary of the method: as §1

giant foxtail = experiment: Test B pre/postemergence giant foxtail; assay type: in vivo, Setaria faberii; conditions: for Plant response rating, Giant foxtail: scale of 0 to 10 where 0 is no effect and 10 is complete control
Summary of the method: as §1

purple nutsedge = experiment: Test B pre/postemergence purple nutsedge; assay type: in vivo, Cyperus rotundus
Summary of the method: as §1

surinam grass = experiment: Test B pre/postemergence surinam grass; assay type: in vivo, Brachiaria decumbens; conditions: for Plant response rating, B. signalgrass: scale of 0 to 10 where 0 is no effect and 10 is complete control
Summary of the method: as §1

morningglory = experiment: Test B pre/postemergence morningglory; assay type: in vivo, Ipomoea hederacea; conditions: for Plant response rating, Morningglory: scale of 0 to 10 where 0 is no effect and 10 is complete control
Summary of the method: as §1

wheat = experiment: Test B pre/postemergence wheat; assay type: in vivo, Triticum aestivum; conditions: for Plant response rating, Wheat: scale of 0 to 10 where 0 is no effect and 10 is complete control
Summary of the method: as §1

bedstraw = experiment: Test B pre/postemergence bedstraw; assay type: in vivo, Galium aparine; conditions: Preemergence
Summary of the method: as §1

wild oat = experiment: Test B pre/postemergence wild oat; assay type: in vivo, Avena fatua; conditions: for Plant response rating, Wild oats: scale of 0 to 10 where 0 is no effect and 10 is complete control
Summary of the method: as §1

rape = experiment: Test B pre/postemergence rape; assay type: in vivo, Brassica napus; conditions: for Plant response rating, Rape: scale of 0 to 10 where 0 is no effect and 10 is complete control
Summary of the method: as §1

soybean = experiment: Test B pre/postemergence soybean; assay type: in vivo, Glycine max; conditions: for Plant response rating, Soybean: scale of 0 to 10 where 0 is no effect and 10 is complete control
Summary of the method: as §1

corn = experiment: Test B pre/postemergence corn; assay type: in vivo, Zea mays; conditions: for Plant response rating, Corn: scale of 0 to 10 where 0 is no effect and 10 is complete control
Summary of the method: as §1

cocklebur = experiment: Test B pre/postemergence cocklebur; assay type: in vivo, Xanthium strumarium; conditions: for Plant response rating, Cocklebur: scale of 0 to 10 where 0 is no effect and 10 is complete control
Summary of the method: as §1

sugar beet = experiment: Test B pre/postemergence sugar beet; assay type: in vivo, Beta vulgaris; conditions: for Plant response rating, Sugarbeets: scale of 0 to 10 where 0 is no effect and 10 is complete control
Summary of the method: as §1

pigweed = experiment: Test B pre/postemergence pigweed; assay type: in vivo, Amaranthus retroflexus; conditions: for Plant response rating, Redroot pigweed: scale of 0 to 10 where 0 is no effect and 10 is complete control
Summary of the method: as §1

[1] = Postemergence, Rate 31 g/ha, visual rating, scale 0 to 10 (0 no effect, 10 complete control)
[2] = Postemergence, Rate 62 g/ha, scale of 0 to 10, 0 is no effect, 10 is complete control
[3] = Postemergence, Rate 125 g/ha, scale 0 to 10, 0 is no effect, 10 is complete control
[4] = Preemergence, Rate 31 g/ha, visual rating, scale 0 to 10 (0 no effect, 10 complete control)
[5] = Preemergence, Rate 125 g/ha, scale 0 to 10, 0 is no effect, 10 is complete control

CC(C)N(C(=O)n1oc(=O)n(C[Si](C)(C)C)c1=O)c1ccc(F)cc1F [Compound 518] was tested, and the “Blackgrass plant response rating” value (blackgrass; [1]) was 4, the “Blackgrass plant response rating” value (blackgrass; [2]) was 4 and the “Blackgrass plant response rating” value (blackgrass; [3]) was 7. For the same compound, the “Blackgrass plant response rating” value (blackgrass; [4]) was 4, the “Plant response rating, Blackgrass” value (blackgrass; Preemergence, Rate 62 g/ha) was 7 and the “Blackgrass plant response rating” value (blackgrass; [5]) was 8. The “Blackgrass plant response rating (0 to 10 scale)” value (blackgrass; Preemergence, Rate 250 g/ha) was 7, the “Plant response rating, Blackgrass” value (blackgrass; Rate 250 g/ha, Postemergence) was 7 and the “Velvetleaf plant response rating” value (velvetleaf; Postemergence) was 2. The “Plant response rating, Velvetleaf” value (velvetleaf; Preemergence, Rate 62 g/ha) was 0, the “Velvetleaf plant response rating” value (velvetleaf; Preemergence) was 0 and the “Velvetleaf plant response rating (0 to 10 scale)” value (velvetleaf; Preemergence, Rate 250 g/ha) was 0. For the same compound, the “Plant response rating, Velvetleaf” value (velvetleaf; Rate 250 g/ha, Postemergence) was 4, the “Crabgrass plant response rating” value (crabgrass; [1]) was 0 and the “Crabgrass plant response rating” value (crabgrass; [2]) was 0. The “Crabgrass plant response rating” value (crabgrass; [3]) was 2, the “Crabgrass plant response rating” value (crabgrass; [4]) was 0 and the “Plant response rating, Crabgrass” value (crabgrass; Preemergence, Rate 62 g/ha) was 0. The “Crabgrass plant response rating” value (crabgrass; [5]) was 0, the “Crabgrass plant response rating (0 to 10 scale)” value (crabgrass; Preemergence, Rate 250 g/ha) was 0 and the “Plant response rating, Crabgrass” value (crabgrass; Rate 250 g/ha, Postemergence) was 10. The “Giant foxtail plant response rating” value (giant foxtail; [1]) was 0, the “Giant foxtail plant response rating” value (giant foxtail; [2]) was 0 and the “Giant foxtail plant response rating” value (giant foxtail; [3]) was 0. The “Giant foxtail plant response rating” value (giant foxtail; [4]) was 0, the “Plant response rating, Giant foxtail” value (giant foxtail; Preemergence, Rate 62 g/ha) was 0 and the “Giant foxtail plant response rating” value (giant foxtail; [5]) was 0. The “Giant foxtail plant response rating (0 to 10 scale)” value (giant foxtail; Preemergence, Rate 250 g/ha) was 0, the “Plant response rating, Giant foxtail” value (giant foxtail; Rate 250 g/ha, Postemergence) was 2 and the “Nutsedge plant response rating” value (purple nutsedge; [1]) was 0. The “Nutsedge plant response rating” value (purple nutsedge; [2]) was 0, the “Nutsedge plant response rating” value (purple nutsedge; [3]) was 0 and the “Plant response rating, Nutsedge” value (purple nutsedge; Preemergence, Rate 62 g/ha, scale of 0 to 10 where 0 is no effect and 10 is complete control) was 0. The “Nutsedge plant response rating” value (purple nutsedge; [5]) was 0, the “Nutsedge plant response rating (0 to 10 scale)” value (purple nutsedge; Preemergence, Rate 250 g/ha) was 0 and the “B. signalgrass plant response rating” value (surinam grass; [1]) was 3. For the same compound, the “B. signalgrass plant response rating” value (surinam grass; [3]) was 7, the “B. signalgrass plant response rating” value (surinam grass; [4]) was 0 and the “Plant response rating, B. signalgrass” value (surinam grass; Preemergence, Rate 62 g/ha) was 0. For the same compound, the “B. signalgrass plant response rating” value (surinam grass; [5]) was 3, the “B. signalgrass plant response rating (0 to 10 scale, 0 is no effect, 10 is complete control)” value (surinam grass; Preemergence, Rate 250 g/ha) was 10 and the “Plant response rating, B. signalgrass” value (surinam grass; Rate 250 g/ha, Postemergence) was 7. For the same compound, the “Morningglory plant response rating” value (morningglory; [1]) was 5, the “Morningglory plant response rating” value (morningglory; [2]) was 5 and the “Morningglory plant response rating” value (morningglory; [3]) was 5. For the same compound, the “Plant response rating, Morningglory” value (morningglory; Preemergence, Rate 62 g/ha) was 0, the “Morningglory plant response rating” value (morningglory; [5]) was 0 and the “Morningglory plant response rating (0 to 10 scale)” value (morningglory; Preemergence, Rate 250 g/ha) was 0. For the same compound, the “Plant response rating, Morningglory” value (morningglory; Rate 250 g/ha, Postemergence) was 8, the “Wheat plant response rating” value (wheat; [1]) was 0 and the “Wheat plant response rating” value (wheat; [2]) was 0. For the same compound, the “Wheat plant response rating” value (wheat; [3]) was 0, the “Plant response rating, Wheat” value (wheat; Preemergence, Rate 62 g/ha) was 0 and the “Wheat plant response rating” value (wheat; [5]) was 2. For the same compound, the “Wheat plant response rating (0 to 10 scale)” value (wheat; Preemergence, Rate 250 g/ha) was 3, the “Plant response rating, Wheat” value (wheat; Rate 250 g/ha, Postemergence) was 0 and the “Bedstraw plant response rating” value (bedstraw; Rate 31 g/ha, visual rating, scale 0 to 10 (0 no effect, 10 complete control)) was 0. The “Plant response rating, Bedstraw” value (bedstraw; Rate 62 g/ha, scale of 0 to 10 where 0 is no effect and 10 is complete control) was 0, the “Bedstraw plant response rating” value (bedstraw; Rate 125 g/ha, scale 0 to 10, 0 is no effect, 10 is complete control) was 0 and the “Bedstraw plant response rating (0 to 10 scale)” value (bedstraw; Rate 250 g/ha) was 0. For the same compound, the “Wild oats plant response rating” value (wild oat; [1]) was 0, the “Wild oats plant response rating” value (wild oat; [2]) was 0 and the “Wild oats plant response rating” value (wild oat; [3]) was 2. For the same compound, the “Plant response rating, Wild oats” value (wild oat; Preemergence, Rate 62 g/ha) was 4, the “Wild oats plant response rating” value (wild oat; [5]) was 6 and the “Wild oats plant response rating (0 to 10 scale)” value (wild oat; Preemergence, Rate 250 g/ha) was 8. For the same compound, the “Plant response rating, Wild oats” value (wild oat; Rate 250 g/ha, Postemergence) was 2, the “Rape plant response rating” value (rape; [1]) was 0 and the “Rape plant response rating” value (rape; [2]) was 0. The “Rape plant response rating” value (rape; [3]) was 7, the “Plant response rating, Rape” value (rape; Preemergence, Rate 62 g/ha) was 0 and the “Rape plant response rating” value (rape; [5]) was 0. The “Rape plant response rating (0 to 10 scale)” value (rape; Preemergence, Rate 250 g/ha) was 0, the “Plant response rating, Rape” value (rape; Rate 250 g/ha, Postemergence) was 7 and the “Soybean plant response rating” value (soybean; [1]) was 4. For the same compound, the “Soybean plant response rating” value (soybean; [2]) was 4, the “Soybean plant response rating” value (soybean; [3]) was 5 and the “Plant response rating, Soybean” value (soybean; Preemergence, Rate 62 g/ha) was 0. For the same compound, the “Soybean plant response rating” value (soybean; [5]) was 0, the “Soybean plant response rating (0 to 10 scale)” value (soybean; Preemergence, Rate 250 g/ha) was 0 and the “Plant response rating, Soybean” value (soybean; Rate 250 g/ha, Postemergence) was 5. The “Corn plant response rating” value (corn; [1]) was 0, the “Corn plant response rating” value (corn; [2]) was 0 and the “Corn plant response rating” value (corn; [3]) was 0. For the same compound, the “Corn plant response rating” value (corn; [4]) was 0, the “Plant response rating, Corn” value (corn; Preemergence, Rate 62 g/ha) was 0 and the “Corn plant response rating” value (corn; [5]) was 0. The “Corn plant response rating (0 to 10 scale)” value (corn; Preemergence, Rate 250 g/ha) was 0, the “Plant response rating, Corn” value (corn; Rate 250 g/ha, Postemergence) was 0 and the “Cocklebur plant response rating” value (cocklebur; [1]) was 0. For the same compound, the “Cocklebur plant response rating” value (cocklebur; [2]) was 0, the “Cocklebur plant response rating” value (cocklebur; [3]) was 0 and the “Cocklebur plant response rating” value (cocklebur; [4]) was 0. For the same compound, the “Plant response rating, Cocklebur” value (cocklebur; Preemergence, Rate 62 g/ha) was 0, the “Cocklebur plant response rating” value (cocklebur; [5]) was 0 and the “Cocklebur plant response rating (0 to 10 scale)” value (cocklebur; Preemergence, Rate 250 g/ha) was 0. The “Plant response rating, Cocklebur” value (cocklebur; Rate 250 g/ha, Postemergence) was 0, the “Sugarbeets plant response rating” value (sugar beet; [1]) was 0 and the “Sugarbeets plant response rating” value (sugar beet; [2]) was 0. For the same compound, the “Sugarbeets plant response rating” value (sugar beet; [3]) was 3, the “Plant response rating, Sugarbeets” value (sugar beet; Preemergence, Rate 62 g/ha) was 0 and the “Sugarbeets plant response rating” value (sugar beet; [5]) was 2. The “Sugarbeets plant response rating (0 to 10 scale)” value (sugar beet; Preemergence, Rate 250 g/ha) was 2, the “Plant response rating, Sugarbeets” value (sugar beet; Rate 250 g/ha, Postemergence) was 3 and the “Redroot pigweed plant response rating” value (pigweed; [1]) was 0. For the same compound, the “Redroot pigweed plant response rating” value (pigweed; [2]) was 0, the “Redroot pigweed plant response rating” value (pigweed; [3]) was 0 and the “Plant response rating, Redroot pigweed” value (pigweed; Preemergence, Rate 62 g/ha) was 2. The “Redroot pigweed plant response rating” value (pigweed; [5]) was 2, the “Redroot pigweed plant response rating (0 to 10 scale)” value (pigweed; Preemergence, Rate 250 g/ha) was 4 and the “Plant response rating, Redroot pigweed” value (pigweed; Rate 250 g/ha, Postemergence) was 0.
